Measured values taken from PubChem BioAssay AID2060600 (Molecular Pharmacology Branch, DTP, NCI, 2025).

Tested on: 996289-038-R-J1-PDC complex spheroid viability
Test: Anticancer human tumor 996289-038-R-J1-PDC patient-derived colon adenocarcinoma cell line growth inhibition [CLK]
Conditions: for IC50: curve of first compound; for viability, T/C: stronger effect = lower value
Method in brief: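 Patient-derived tumor cells grown as complex spheroids with HUVEC endothelial cells and mesenchymal stem cells, treated with drug combinations. Concentrations descend in half-log steps from near clinical Cmax, or from 10 microM if Cmax unknown.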

[1] = second compound 0.0316 µM, first compound 0.0316 µM
[2] = second compound 0.0316 µM, first compound 0.1 µM
[3] = second compound 0.0316 µM, first compound 0.316 µM
[4] = second compound 0.0316 µM, first compound 1 µM
[5] = second compound 0.0316 µM, first compound 3.16 µM
[6] = second compound 0.0316 µM, first compound 10 µM
[7] = second compound 0.1 µM, first compound 0.0316 µM
[8] = second compound 0.1 µM, first compound 0.1 µM
[9] = second compound 0.1 µM, first compound 0.316 µM
[10] = second compound 0.1 µM, first compound 1 µM
[11] = second compound 0.1 µM, first compound 3.16 µM
[12] = second compound 0.1 µM, first compound 10 µM
[13] = second compound 0.316 µM, first compound 0.0316 µM
[14] = second compound 0.316 µM, first compound 0.1 µM
[15] = second compound 0.316 µM, first compound 0.316 µM
[16] = second compound 0.316 µM, first compound 1 µM
[17] = second compound 0.316 µM, first compound 3.16 µM
[18] = second compound 0.316 µM, first compound 10 µM
[19] = second compound 1 µM, first compound 0.0316 µM
[20] = second compound 1 µM, first compound 0.1 µM
[21] = second compound 1 µM, first compound 0.316 µM
[22] = second compound 1 µM, first compound 1 µM
[23] = second compound 1 µM, first compound 3.16 µM
[24] = second compound 1 µM, first compound 10 µM
[25] = second compound 3.16 µM, first compound 0.0316 µM
[26] = second compound 3.16 µM, first compound 0.1 µM
[27] = second compound 3.16 µM, first compound 0.316 µM
[28] = second compound 3.16 µM, first compound 1 µM
[29] = second compound 3.16 µM, first compound 3.16 µM
[30] = second compound 3.16 µM, first compound 10 µM
[31] = second compound 10 µM, first compound 0.0316 µM
[32] = second compound 10 µM, first compound 0.1 µM
[33] = second compound 10 µM, first compound 0.316 µM
[34] = second compound 10 µM, first compound 1 µM
[35] = second compound 10 µM, first compound 3.16 µM
[36] = second compound 10 µM, first compound 10 µM
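Note: spheroids exposed to the agents for 7 days before readout.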

`CC(=O)O[C@H]1C(=O)[C@@]2(C)[C@H]([C@H](OC(=O)c3ccccc3)[C@]3(O)C[C@H](OC(=O)[C@H](O)[C@@H](NC(=O)c4ccccc4)c4ccccc4)C(C)=C1C3(C)C)[C@]1(OC(C)=O)CO[C@@H]1C[C@@H]2O` + CNC(=O)c1ccc(Nc2nc(OC3CCCC3)c3c(-c4ccc5nc(C)oc5c4)c[nH]c3n2)c(OC)c1 was tested, and the IC50 (second compound 0.0316 µM) was greater than 10000 nM, the IC50 (second compound 0.1 µM) was greater than 10000 nM and the IC50 (second compound 0.316 µM) was greater than 10000 nM. It also gave an IC50 (second compound 1 µM) greater than 10000 nM, an IC50 (second compound 3.16 µM) greater than 10000 nM and an IC50 (second compound 10 µM) greater than 10000 nM. It also gave a viability, T/C [1] of 109%, a viability, T/C [2] of 103% and a viability, T/C [3] of 79.9%. It also gave a viability, T/C [4] of 70.3%, a viability, T/C [5] of 67.4% and a viability, T/C [6] of 64.6%. The viability, T/C [7] was 110%, the viability, T/C [8] was 96% and the viability, T/C [9] was 80%. For the same compound, the viability, T/C [10] was 79.2%, the viability, T/C [11] was 74.8% and the viability, T/C [12] was 65.4%. It also gave a viability, T/C [13] of 68.6%, a viability, T/C [14] of 70.3% and a viability, T/C [15] of 65.6%. For the same compound, the viability, T/C [16] was 66.3%, the viability, T/C [17] was 69.2% and the viability, T/C [18] was 73.3%. It also gave a viability, T/C [19] of 63.2%, a viability, T/C [20] of 59% and a viability, T/C [21] of 57.5%. It also gave a viability, T/C [22] of 53.5%, a viability, T/C [23] of 62.9% and a viability, T/C [24] of 61.8%. It also gave a viability, T/C [25] of 59.6%, a viability, T/C [26] of 55% and a viability, T/C [27] of 54%. For the same compound, the viability, T/C [28] was 54.3%, the viability, T/C [29] was 59% and the viability, T/C [30] was 65.2%. It also gave a viability, T/C [31] of 56.7%, a viability, T/C [32] of 53.5% and a viability, T/C [33] of 55.2%. The viability, T/C [34] was 53.8%, the viability, T/C [35] was 59.6% and the viability, T/C [36] was 53.7%.

For `CCc1c2c(nc3ccc(O)cc13)-c1cc3c(c(=O)n1C2)COC(=O)[C@]3(O)CC` + CNC(=O)c1ccc(Nc2nc(OC3CCCC3)c3c(-c4ccc5nc(C)oc5c4)c[nH]c3n2)c(OC)c1, the IC50 (second compound 0.0316 µM) was 203 nM, the IC50 (second compound 0.1 µM) was 239 nM and the IC50 (second compound 0.316 µM) was 72.3 nM. The IC50 (second compound 1 µM) was 15.8 nM, the IC50 (second compound 3.16 µM) was 8.28 nM and the IC50 (second compound 10 µM) was 8.57 nM. It also gave a viability, T/C (second compound 0.0316 µM, first compound 0.00316 µM) of 115%, a viability, T/C (second compound 0.0316 µM, first compound 0.01 µM) of 89.4% and a viability, T/C [1] of 63.3%. For the same compound, the viability, T/C [2] was 61.6%, the viability, T/C [3] was 48.8% and the viability, T/C [4] was 29.3%. The viability, T/C (second compound 0.1 µM, first compound 0.00316 µM) was 110%, the viability, T/C (second compound 0.1 µM, first compound 0.01 µM) was 96.2% and the viability, T/C [7] was 69.9%. It also gave a viability, T/C [8] of 63.3%, a viability, T/C [9] of 49% and a viability, T/C [10] of 31.6%. The viability, T/C (second compound 0.316 µM, first compound 0.00316 µM) was 77.4%, the viability, T/C (second compound 0.316 µM, first compound 0.01 µM) was 68.1% and the viability, T/C [13] was 56.2%. The viability, T/C [14] was 48.1%, the viability, T/C [15] was 35.6% and the viability, T/C [16] was 21.9%. It also gave a viability, T/C (second compound 1 µM, first compound 0.00316 µM) of 60.8%, a viability, T/C (second compound 1 µM, first compound 0.01 µM) of 52.1% and a viability, T/C [19] of 46.6%. For the same compound, the viability, T/C [20] was 33.1%, the viability, T/C [21] was 25.1% and the viability, T/C [22] was 13.5%. The viability, T/C (second compound 3.16 µM, first compound 0.00316 µM) was 55.5%, the viability, T/C (second compound 3.16 µM, first compound 0.01 µM) was 50.2% and the viability, T/C [25] was 39%. The viability, T/C [26] was 31.2%, the viability, T/C [27] was 22% and the viability, T/C [28] was 12.8%. It also gave a viability, T/C (second compound 10 µM, first compound 0.00316 µM) of 54.6%, a viability, T/C (second compound 10 µM, first compound 0.01 µM) of 52% and a viability, T/C [31] of 38.9%. The viability, T/C [32] was 32.8%, the viability, T/C [33] was 23.7% and the viability, T/C [34] was 10.8%.

`COc1ccc([C@@H](O)c2cc(-c3ncnc4cc(N5CCOCC5)ccc34)c(F)cc2Cl)nn1` + CNC(=O)c1ccc(Nc2nc(OC3CCCC3)c3c(-c4ccc5nc(C)oc5c4)c[nH]c3n2)c(OC)c1 showed an IC50 (second compound 0.0316 µM) greater than 10000 nM, an IC50 (second compound 0.1 µM) greater than 10000 nM and an IC50 (second compound 0.316 µM) of 5720 nM. For the same compound, the IC50 (second compound 1 µM) was 2470 nM, the IC50 (second compound 3.16 µM) was 1410 nM and the IC50 (second compound 10 µM) was 1130 nM. It also gave a viability, T/C [1] of 117%, a viability, T/C [2] of 117% and a viability, T/C [3] of 101%. It also gave a viability, T/C [4] of 102%, a viability, T/C [5] of 75.4% and a viability, T/C [6] of 54.7%. For the same compound, the viability, T/C [7] was 121%, the viability, T/C [8] was 112% and the viability, T/C [9] was 99.1%. For the same compound, the viability, T/C [10] was 101%, the viability, T/C [11] was 86.8% and the viability, T/C [12] was 52.7%. It also gave a viability, T/C [13] of 82.3%, a viability, T/C [14] of 73.9% and a viability, T/C [15] of 68.9%. It also gave a viability, T/C [16] of 62.5%, a viability, T/C [17] of 66% and a viability, T/C [18] of 39.3%. It also gave a viability, T/C [19] of 67.8%, a viability, T/C [20] of 58.5% and a viability, T/C [21] of 58.4%. It also gave a viability, T/C [22] of 55.7%, a viability, T/C [23] of 50.6% and a viability, T/C [24] of 26.9%. The viability, T/C [25] was 56.2%, the viability, T/C [26] was 59.4% and the viability, T/C [27] was 51.9%. It also gave a viability, T/C [28] of 52%, a viability, T/C [29] of 45.7% and a viability, T/C [30] of 25.9%. The viability, T/C [31] was 56%, the viability, T/C [32] was 57% and the viability, T/C [33] was 52.3%. The viability, T/C [34] was 50.2%, the viability, T/C [35] was 44.1% and the viability, T/C [36] was 27.2%.

Compound `COc1cccc2c1C(=O)c1c(O)c3c(c(O)c1C2=O)CC(O)(C(=O)CO)CC3OC1CC(N)C(O)C(C)O1` (stereo not drawn) + CNC(=O)c1ccc(Nc2nc(OC3CCCC3)c3c(-c4ccc5nc(C)oc5c4)c[nH]c3n2)c(OC)c1 has an IC50 (second compound 0.0316 µM) of 4460 nM, an IC50 (second compound 0.1 µM) of 2150 nM and an IC50 (second compound 0.316 µM) of 983 nM. For the same compound, the IC50 (second compound 1 µM) was 173 nM, the IC50 (second compound 3.16 µM) was less than 31.6 nM and the IC50 (second compound 10 µM) was 66.9 nM. For the same compound, the viability, T/C [1] was 119%, the viability, T/C [2] was 98.7% and the viability, T/C [3] was 87.5%. The viability, T/C [4] was 68.8%, the viability, T/C [5] was 59.9% and the viability, T/C [6] was 36%. For the same compound, the viability, T/C [7] was 104%, the viability, T/C [8] was 110% and the viability, T/C [9] was 79.7%. It also gave a viability, T/C [10] of 59.9%, a viability, T/C [11] of 50% and a viability, T/C [12] of 28.7%. The viability, T/C [13] was 75.3%, the viability, T/C [14] was 73.4% and the viability, T/C [15] was 63.1%. It also gave a viability, T/C [16] of 51%, a viability, T/C [17] of 31% and a viability, T/C [18] of 18.5%. It also gave a viability, T/C [19] of 64.8%, a viability, T/C [20] of 56.6% and a viability, T/C [21] of 42.2%. The viability, T/C [22] was 28.1%, the viability, T/C [23] was 14.3% and the viability, T/C [24] was 10.3%. The viability, T/C [25] was 49.3%, the viability, T/C [26] was 48.2% and the viability, T/C [27] was 38.5%. For the same compound, the viability, T/C [28] was 19.5%, the viability, T/C [29] was 10.3% and the viability, T/C [30] was 7.76%. For the same compound, the viability, T/C [31] was 53.1%, the viability, T/C [32] was 47.6% and the viability, T/C [33] was 36.6%. The viability, T/C [34] was 18.1%, the viability, T/C [35] was 8.69% and the viability, T/C [36] was 7.86%.
